Test results taken from patent US20190209472A1, “FORMULATIONS FOR DERMAL DELIVERY OF POLYMER CONJUGATES OF INDOLOCARBAZOLE COMPOUNDS WITH REDUCED EXPOSURE” (Sienna Biopharmaceuticals, Inc., priority 2017, published 2019).
Where two headings read alike, the source gives them in different places.

Legend:
[1] = system: lesions of psoriasis vulgaris
Text: This was a Phase I, single-center, randomized, double-blind, placebo-controlled study in male and female patients with stable psoriasis vulgaris aged >18 and <71 years. Sixteen patients were enrolled in 2 treatment groups. […] Patients attended a screening visit within 21 days prior to Day 1. Patients were then admitted to the CPU in the afternoon of Day −1 and remained resident in the CPU until the morning of Day 8. Patients attended a follow-up visit 7 to 10 days after the last treatment administration on Day 7.
The ointment was applied by the CPU staff, using a spatula and finger cot.
Physicians Global Assessment (PGA) scores were assessed at screening, Day 1, Day 7 and at follow-up. Digital photographs of the application sites were also taken on admission to the CPU, Day 7 and at follow-up.

TrkA kinase = TrkA kinase (Homo sapiens, UniProt P04629)
Sequence of TrkA kinase (P04629 33-796): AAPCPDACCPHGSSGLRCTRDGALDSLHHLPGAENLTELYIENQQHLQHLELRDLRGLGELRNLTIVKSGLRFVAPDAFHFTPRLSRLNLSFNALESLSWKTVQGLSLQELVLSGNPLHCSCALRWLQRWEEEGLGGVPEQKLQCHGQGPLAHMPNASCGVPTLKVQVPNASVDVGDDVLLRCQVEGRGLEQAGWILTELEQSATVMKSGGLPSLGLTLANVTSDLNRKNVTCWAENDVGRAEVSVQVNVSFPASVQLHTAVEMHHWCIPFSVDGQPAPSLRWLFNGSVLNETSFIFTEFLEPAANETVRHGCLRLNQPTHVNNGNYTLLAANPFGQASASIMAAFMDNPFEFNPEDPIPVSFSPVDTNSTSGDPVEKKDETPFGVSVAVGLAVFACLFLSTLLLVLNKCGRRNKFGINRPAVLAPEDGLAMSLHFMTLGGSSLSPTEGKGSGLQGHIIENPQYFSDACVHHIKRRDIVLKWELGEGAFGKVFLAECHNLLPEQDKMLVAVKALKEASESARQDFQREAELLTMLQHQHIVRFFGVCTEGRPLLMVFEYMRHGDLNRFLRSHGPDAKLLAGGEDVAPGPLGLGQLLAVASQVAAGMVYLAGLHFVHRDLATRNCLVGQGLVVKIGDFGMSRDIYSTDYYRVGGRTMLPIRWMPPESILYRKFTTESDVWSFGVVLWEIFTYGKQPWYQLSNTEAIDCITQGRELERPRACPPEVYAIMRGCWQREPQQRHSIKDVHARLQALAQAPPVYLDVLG

Substance: (9S, 10R, 12R)-10-(3′-mPEG2000-1′,3′-oxazolidine-2′,4′-dione)-2,3,9,10,11,12-hexahydro-9-methyl-1-oxo-9,12-epoxy-1H-diindolo[1,2,3-fg:3′,2′,1′-k,l]pyrrolo[3,4-i][1,6] benzodiazocine] [CT327]
- PGA Scaling 3: MODERATE, COARSE SCALE PREDOMINATES, patients (%) ([1]; Plaque 2, DAY 1, N = 12): (8.3%)
- PGA Scaling 4: MARKED, THICK, NON-TENACIOUS SCALE DOMINATES, patients (%) ([1]; Plaque 2, DAY 1, N = 12): (8.3%)
- Physician Static Global Score 2: MILD, patients (%) ([1]; Plaque 2, DAY 1, N = 12): (25.0%)
- Physician Static Global Score 3: MODERATE, patients (%) ([1]; Plaque 2, DAY 1, N = 12): (8.3%)
- PGA Erythma 2: LIGHT RED COLOURATION, patients (%) ([1]; Plaque 2, DAY 7, N = 12): (25.0%)
- PGA Erythma 3: MODERATE RED COLOURATION, patients (%) ([1]; Plaque 2, DAY 7, N = 12): (8.3%)
- PGA Induration 1: MINIMAL PLAQUE ELEVATION, =0.25 MM, patients (%) ([1]; Plaque 2, DAY 7, N = 12): (25.0%)
- PGA Induration 2: MILD PLAQUE ELEVATION, =0.5 MM, patients (%) ([1]; Plaque 2, DAY 7, N = 12): (8.3%)
- PGA Scaling 1: MINIMAL, OCCASIONAL FINE SCALE OVER LESS THAN 5% OF THE LESION, patients (%) ([1]; Plaque 2, DAY 7, N = 12): (16.7%)
- PGA Scaling 2: MILD, FINE SCALE DOMINATES, patients (%) ([1]; Plaque 2, DAY 7, N = 12): (16.7%)
- Physician Static Global Score 1: MINIMAL, patients (%) ([1]; Plaque 2, DAY 7, N = 12): (8.3%)
- Physician Static Global Score 2: MILD, patients (%) ([1]; Plaque 2, DAY 7, N = 12): (25.0%)
- PGA Erythma 2: LIGHT RED COLOURATION, patients (%) ([1]; Plaque 2, FOLLOW-UP, N = 12): (33.3%)
- PGA Induration 1: MINIMAL PLAQUE ELEVATION, =0.25 MM, patients (%) ([1]; Plaque 2, FOLLOW-UP, N = 12): (8.3%)
- PGA Induration 2: MILD PLAQUE ELEVATION, =0.5 MM, patients (%) ([1]; Plaque 2, FOLLOW-UP, N = 12): (25.0%)
- PGA Scaling 1: MINIMAL, OCCASIONAL FINE SCALE OVER LESS THAN 5% OF THE LESION, patients (%) ([1]; Plaque 2, FOLLOW-UP, N = 12): (8.3%)
- PGA Scaling 2: MILD, FINE SCALE DOMINATES, patients (%) ([1]; Plaque 2, FOLLOW-UP, N = 12): (25.0%)
- Physician Static Global Score 2: MILD, patients (%) ([1]; Plaque 2, FOLLOW-UP, N = 12): (33.3%)
- PGA Erythma 2: LIGHT RED COLOURATION, patients (%) ([1]; Plaque 2, SCREENING, N = 12): (33.3%)
- PGA Erythma 3: MODERATE RED COLOURATION, patients (%) ([1]; Plaque 2, SCREENING, N = 12): (25.0%)
- PGA Induration 1: MINIMAL PLAQUE ELEVATION, =0.25 MM, patients (%) ([1]; Plaque 2, SCREENING, N = 12): (8.3%)
- PGA Induration 2: MILD PLAQUE ELEVATION, =0.5 MM, patients (%) ([1]; Plaque 2, SCREENING, N = 12): (33.3%)
- PGA Induration 3: MODERATE PLAQUE ELEVATION, =0.75 MM, patients (%) ([1]; Plaque 2, SCREENING, N = 12): (8.3%)
- PGA Induration 4: MARKED PLAQUE ELEVATION, =1 MM, patients (%) ([1]; Plaque 2, SCREENING, N = 12): (8.3%)
- PGA Scaling 2: MILD, FINE SCALE DOMINATES, patients (%) ([1]; Plaque 2, SCREENING, N = 12): (16.7%)
- PGA Scaling 3: MODERATE, COARSE SCALE PREDOMINATES, patients (%) ([1]; Plaque 2, SCREENING, N = 12): (33.3%)
- PGA Scaling 4: MARKED, THICK, NON-TENACIOUS SCALE DOMINATES, patients (%) ([1]; Plaque 2, SCREENING, N = 12): (8.3%)
- Physician Static Global Score 2: MILD, patients (%) ([1]; Plaque 2, SCREENING, N = 12): (33.3%)
- Physician Static Global Score 3: MODERATE, patients (%) ([1]; Plaque 2, SCREENING, N = 12): (16.7%)
- Physician Static Global Score 4: MARKED, patients (%) ([1]; Plaque 2, SCREENING, N = 12): (8.3%)
- PGA Erythma 2: LIGHT RED COLOURATION, patients (%) ([1]; Plaque 3, DAY 1, N = 12): (16.7%)
- PGA Induration 2: MILD PLAQUE ELEVATION, =0.5 MM, patients (%) ([1]; Plaque 3, DAY 1, N = 12): (8.3%)
- PGA Induration 3: MODERATE PLAQUE ELEVATION, =0.75 MM, patients (%) ([1]; Plaque 3, DAY 1, N = 12): (8.3%)
- PGA Scaling 2: MILD, FINE SCALE DOMINATES, patients (%) ([1]; Plaque 3, DAY 1, N = 12): (8.3%)
- PGA Scaling 4: MARKED, THICK, NON-TENACIOUS SCALE DOMINATES, patients (%) ([1]; Plaque 3, DAY 1, N = 12): (8.3%)
- Physician Static Global Score 2: MILD, patients (%) ([1]; Plaque 3, DAY 1, N = 12): (8.3%)
- Physician Static Global Score 3: MODERATE, patients (%) ([1]; Plaque 3, DAY 1, N = 12): (8.3%)
- PGA Erythma 2: LIGHT RED COLOURATION, patients (%) ([1]; Plaque 3, DAY 7, N = 12): (8.3%)
- PGA Erythma 3: MODERATE RED COLOURATION, patients (%) ([1]; Plaque 3, DAY 7, N = 12): (8.3%)
- PGA Induration 1: MINIMAL PLAQUE ELEVATION, =0.25 MM, patients (%) ([1]; Plaque 3, DAY 7, N = 12): (16.7%)
- PGA Scaling 2: MILD, FINE SCALE DOMINATES, patients (%) ([1]; Plaque 3, DAY 7, N = 12): (16.7%)
- Physician Static Global Score 2: MILD, patients (%) ([1]; Plaque 3, DAY 7, N = 12): (16.7%)
- PGA Erythma 2: LIGHT RED COLOURATION, patients (%) ([1]; Plaque 3, FOLLOW-UP, N = 12): (16.7%)
- PGA Induration 1: MINIMAL PLAQUE ELEVATION, =0.25 MM, patients (%) ([1]; Plaque 3, FOLLOW-UP, N = 12): (8.3%)
- PGA Induration 2: MILD PLAQUE ELEVATION, =0.5 MM, patients (%) ([1]; Plaque 3, FOLLOW-UP, N = 12): (8.3%)
- PGA Scaling 2: MILD, FINE SCALE DOMINATES, patients (%) ([1]; Plaque 3, FOLLOW-UP, N = 12): (16.7%)
- Physician Static Global Score 2: MILD, patients (%) ([1]; Plaque 3, FOLLOW-UP, N = 12): (16.7%)
- PGA Erythma 2: LIGHT RED COLOURATION, patients (%) ([1]; Plaque 3, SCREENING, N = 12): (8.3%)
- PGA Erythma 3: MODERATE RED COLOURATION, patients (%) ([1]; Plaque 3, SCREENING, N = 12): (16.7%)
- PGA Induration 2: MILD PLAQUE ELEVATION, =0.5 MM, patients (%) ([1]; Plaque 3, SCREENING, N = 12): (8.3%)
- PGA Induration 3: MODERATE PLAQUE ELEVATION, =0.75 MM, patients (%) ([1]; Plaque 3, SCREENING, N = 12): (8.3%)
- PGA Induration 4: MARKED PLAQUE ELEVATION, =1 MM, patients (%) ([1]; Plaque 3, SCREENING, N = 12): (8.3%)
- PGA Scaling 3: MODERATE, COARSE SCALE PREDOMINATES, patients (%) ([1]; Plaque 3, SCREENING, N = 12): (16.7%)
- PGA Scaling 4: MARKED, THICK, NON-TENACIOUS SCALE DOMINATES, patients (%) ([1]; Plaque 3, SCREENING, N = 12): (8.3%)
- Physician Static Global Score 2: MILD, patients (%) ([1]; Plaque 3, SCREENING, N = 12): (8.3%)
- Physician Static Global Score 3: MODERATE, patients (%) ([1]; Plaque 3, SCREENING, N = 12): (8.3%)
- Physician Static Global Score 4: MARKED, patients (%) ([1]; Plaque 3, SCREENING, N = 12): (8.3%)
- Inhibition of human keratinocyte proliferation in vitro (human keratinocyte): clear inhibitory activity
- Inhibition of TrkA kinase (TrkA kinase): inhibitor of TrkA kinase at nanomolar levels
